This is an account of results in US20260265305A1, “POLYPEPTIDE DERIVATIVE FOR ORAL DELIVERY” (Hangzhou Sciwind Biosciences Co., Ltd., priority 2023, published 2026).

Read-outs that look alike come from different tables or passages of the source. Numbered stars: 1 amine (or outer) side, 2 acyl side, 3 side chain; on linkers, the order of the positions; unused ones are H or OH. Square brackets hold non-standard residues; d marks the D form. Peptide text beside a SMILES is read from it. * marks the point of attachment. C20 diacid = O=C(O)CCCCCCCCCCCCCCCCCCC(=O)*; C18 diacid = O=C(O)CCCCCCCCCCCCCCCCC(=O)*; γGlu = O=C(O)[C@H](CCC(=O)[*:2])N[*:1]; βAsp = O=C(O)[C@H](CC(=O)[*:2])N[*:1]; AEEA = NCCOCCOCC(=O)O; Inp = O=C(O)C1CCNCC1

A short description of data set [1]: Animal study: weight change and accumulated food intake in SD rats after subcutaneous dosing. Particulars: 10 nmol/kg subcutaneous; for effect on body weight of SD rats: FIGS. 1 and 3; for effect on accumulated food intake of SD rats: FIGS. 2 and 4. It counts as in vivo, SD (Sprague Dawley) rats. From the text:
SD (Sprague Dawley) rats weighing 200-250 g were used for this study. The rats were received at least 10-14 days before the study began such that they could accommodate to the experimental environment. After arrival, they were exposed to a reversed light/dark cycle (i.e., lights switched off in daytime and on in nighttime) for two weeks and were individually housed for the first week so as to ensure high data accuracy and test sensitivity. Throughout the acclimation and experiment period, the rats had free access to food and water. 5-8 rats were assigned to each testing group for the derivatives and were subcutaneously administered the derivatives at a dose of 10 nmol/kg or a vehicle (20 mM phosphate buffer, PB, pH 7.0), and the dosing timepoint was recorded for each group. After dosing, the rats were put back into cages where they were housed and could have access to food and water. Food consumption and weight change of the rats were recorded online or manually every 24 hours. Percent of weight change=(BWTn−BWT0)/BWT0*100%, wherein BW represented the value of body weight, and T0 and Tn represented the time point of dosing and n hours post dose respectively. Dots in the figures were represented utilizing mean±standard error of the mean (SEM).

Data set [2] concerns the target T1, calcitonin receptor (hCTR) (Homo sapiens, UniProt P30988).
T1 construct: host or cells: CHO-K1/CALCR/Ga15 cells, further stably transfected with a CRE-luciferase plasmid
T1 sequence (P30988 25-474): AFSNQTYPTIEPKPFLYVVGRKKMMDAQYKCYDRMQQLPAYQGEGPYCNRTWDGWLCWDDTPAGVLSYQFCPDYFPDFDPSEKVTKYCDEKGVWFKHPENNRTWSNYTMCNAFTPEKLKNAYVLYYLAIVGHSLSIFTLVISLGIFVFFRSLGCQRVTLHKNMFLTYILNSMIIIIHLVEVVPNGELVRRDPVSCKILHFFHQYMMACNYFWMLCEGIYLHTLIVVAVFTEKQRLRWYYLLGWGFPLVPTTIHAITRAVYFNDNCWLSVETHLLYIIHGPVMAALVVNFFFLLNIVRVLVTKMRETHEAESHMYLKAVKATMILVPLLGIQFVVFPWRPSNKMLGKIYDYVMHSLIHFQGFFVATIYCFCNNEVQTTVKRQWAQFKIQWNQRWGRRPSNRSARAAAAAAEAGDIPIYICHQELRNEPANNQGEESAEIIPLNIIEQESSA
As to the kind of experiment: Calcitonin receptor agonism, CRE-luciferase assay in stably transfected CHO-K1/CALCR/Ga15 cells. It counts as cell-based. Particulars: for Fold change in activity against hCTR: relative to D1 as benchmark.
Description: Using the standard protocol, CHO-K1/CALCR/Ga15 cells (purchased from GenScript, with the calcitonin receptor constructed already) were transfected with a plasmid containing a luciferase expression cassette driven by multiple copies of cAMP response elements (CREs). The cells were cultured in an F12 medium containing 200 ug/mL Zeocin, 2 ug/mL puromycin, and 100 ug/mL hygromycin to afford a stably transfected calcitonin receptor/CRE-luc cell line.
(§1) To each well of a white 96-well plate was added 50 μL of the tested sample solution at a respective concentration.
The stably transfected calcitonin receptor/CRE-luc CHO cells were resuspended in the growth medium at a certain density, and 50 μL of the cell suspension was added at a density of about 20,000 cells per well to the white 96-well plate containing the tested sample solution. After incubation of 24 hours at 37° C. and 5% CO2, 100 μL of a Luciferase substrate was added to each well, incubated for 3 minutes, and finally was tested for luminescence on SpectraMax L (Molecular Devices) with the software SoftMax Pro 7.0.3 GxP. A standard curve was plotted using the fluorescent intensities for calculation of EC50.

The nature of data set [3]: Heat accelerated stability assay of polypeptide solutions (40° C., pH about 7.4), reversed phase chromatography. The format is physicochemical. Particulars: 40° C.; for Concentration change on 7 d / Concentration change on 26 d: pH about 7.4, 1 mg/mL; for Concentration change on 7 d / Purity change on 7 d: Day 7; for Concentration change on 26 d / Purity change on 26 d: Day 26; for Purity change on 7 d / Purity change on 26 d: reversed phase chromatography 214 nm; for Purity change on 7 d: purity on 7 d − purity on 0 d; for Purity change on 26 d: purity on 26 d − purity on 0 d. The method in brief: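 Polypeptide derivative lyophilisate (1 mg/mL) with sodium dihydrogen phosphate (1.42 mg/mL) in water, pH about 7.4, sterile-filtered, vialed and held at 40° C; sampled on days 7 and 26. After centrifugation, concentration and purity (target/total peak area) by C18 RP-HPLC, TFA/ACN gradient, 280 and 214 nm.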

A further data set addresses T2, amylin receptor (hAMY3R) (Homo sapiens, UniProt O60896+P30988).
T2 construct: host or cells: CHO-K1/Ga15/AMY3 cells, further stably transfected with a CRE-luciferase plasmid
T2 sequence (P30988 25-474): T1 sequence (P30988 25-474)
T2 sequence (O60896 24-148): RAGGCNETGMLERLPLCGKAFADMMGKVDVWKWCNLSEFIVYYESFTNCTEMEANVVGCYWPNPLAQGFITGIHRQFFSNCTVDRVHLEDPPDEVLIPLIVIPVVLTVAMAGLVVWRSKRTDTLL
Description: Amylin receptor agonism testing, CRE-luciferase assay in stably transfected CHO-K1/Ga15/AMY3 cells. It counts as cell-based. Particulars: for Fold change in activity against hAMY3R: relative to D1 as benchmark.

The mark [4] stands for this setting: incubation of 24 hours, Table 4, read-out: EC50, activity against the calcitonin receptor in cells.
[5] abbreviates: incubation of 24 hours, Table 3, read-out: EC50, activity against the amylin receptor in cells.

Description for amylin receptor (hAMY3R): The objective of this assay is to test the potency of the polypeptide derivatives in the present application on amylin and calcitonin receptors in vitro using a luciferase assay.
Using the standard protocol for construction of an amylin receptor/CRE-luc cell line, CHO-K1/Ga15/AMY3 cells (purchased from GenScript, with the calcitonin receptor and the receptor activity modifying peptide (RAMP) constructed already) were transfected with a plasmid containing a luciferase expression cassette driven by multiple copies of cAMP response elements (CREs). The cells were cultured in an F12 medium containing 200 ug/mL Zeocin, 2 ug/mL puromycin, 100 ug/mL hygromycin, and 400 ug/mL G418 to afford a stably transfected amylin receptor/CRE-luc cell line.
as §1
The stably transfected amylin receptor/CRE-luc CHO cells were resuspended in the growth medium at a certain density, and 50 μL of the cell suspension was added at a density of about 20,000 cells per well to the white 96-well plate containing the tested sample solution. After incubation of 24 hours at 37° C. and 5% CO2, 100 μL of a Luciferase substrate was added to each well, incubated for 3 minutes, and finally was tested for luminescence on SpectraMax L (Molecular Devices) with the software SoftMax Pro 7.0.3 GxP. A standard curve was plotted using the fluorescent intensities for calculation of EC50.

Consider `CC(C)C[C@H](NC(=O)[C@H](CCCNC(=N)N)NC(=O)CNC(=O)[C@H](CC(C)C)NC(=O)[C@@H](NC(=O)[C@H](C)NC(=O)[C@@H](NC(=O)[C@H](CO)NC(=O)[C@H](CC(C)C)NC(=O)[C@H](CCC(N)=O)NC(=O)[C@H](CO)NC(=O)[C@H](C)NC(=O)COCCOCCNC(=O)COCCOCCNC(=O)CC[C@H](NC(=O)CCCCCCCCCCCCCCCCCCC(=O)O)C(=O)O)[C@@H](C)O)C(C)C)C(=O)N[C@@H](CO)C(=O)N[C@@H](CC(=O)O)C(=O)N[C@@H](CCC(=O)O)C(=O)N[C@@H](CC(C)C)C(=O)N[C@@H](Cc1c[nH]cn1)C(=O)N[C@@H](CCCNC(=N)N)C(=O)N[C@@H](CC(C)C)C(=O)N[C@@H](CCC(N)=O)C(=O)N[C@@H](CC(=O)O)C(=O)N[C@@H](Cc1ccc(O)cc1)C(=O)N1CCC[C@H]1C(=O)N[C@@H](CCCNC(=N)N)C(=O)N[C@H](C(=O)N[C@@H](CC(=O)O)C(=O)N[C@H](C(=O)NCC(=O)N[C@@H](CO)C(=O)NCC(=O)N[C@@H](CO)C(=O)N1CCC[C@H]1C(N)=O)C(C)C)[C@@H](C)O` [M18] ({C20 diacid-γGlu-AEEA-AEEA}-ASQLSTAVLGRLSDELHRLQDYPRTDVGSGSP-NH2), for which, in data set [1], the “effect on body weight of SD rats” value is “apparently further reduced” and the “effect on accumulated food intake of SD rats” value is recorded as “apparently further reduced”. The EC50 (in general, the concentration at which the effect is half-maximal) in data set [2] (setting [4]) is 0.069 nM. For the same compound, the “Fold change in activity against hCTR” value in data set [2] is listed as 1.246. In data set [3], the “Concentration change on 7 d” value is reported as “No change (concentration change of less than 1% (denoted as “no change”))”, the “Concentration change on 26 d” value is reported as −1.148%, the “Purity change on 7 d” value is “No change” and the “Purity change on 26 d” value was “nearly no noticeable change in purity”. Also, at amylin receptor (hAMY3R) (Table 5 integrated analysis, read-out: hAMY3R EC50), the EC50 is 0.016 nM. Also, on amylin receptor (hAMY3R), the “Fold change in activity against hAMY3R” value is on record as 2.25.
Turning to `CC(C)C[C@H](NC(=O)[C@H](CCCNC(=N)N)NC(=O)CNC(=O)[C@H](CC(C)C)NC(=O)[C@@H](NC(=O)[C@H](C)NC(=O)[C@@H](NC(=O)[C@H](CO)NC(=O)[C@H](CC(C)C)NC(=O)[C@H](CCC(N)=O)NC(=O)[C@H](CO)NC(=O)[C@H](C)NC(=O)COCCOCCNC(=O)COCCOCCNC(=O)[C@H](CCC(=O)O)NC(=O)CCCCCCCCCCCCCCCCCCC(=O)O)[C@@H](C)O)C(C)C)C(=O)N[C@@H](CO)C(=O)N[C@@H](CC(=O)O)C(=O)N[C@@H](CCC(=O)O)C(=O)N[C@@H](CC(C)C)C(=O)N[C@@H](Cc1c[nH]cn1)C(=O)N[C@@H](CCCNC(=N)N)C(=O)N[C@@H](CC(C)C)C(=O)N[C@@H](CCC(N)=O)C(=O)N[C@@H](CC(=O)O)C(=O)N[C@@H](Cc1ccc(O)cc1)C(=O)N1CCC[C@H]1C(=O)N[C@@H](CCCNC(=N)N)C(=O)N[C@H](C(=O)N[C@@H](CC(=O)O)C(=O)N[C@H](C(=O)NCC(=O)N[C@@H](CO)C(=O)NCC(=O)N[C@@H](CO)C(=O)N1CCC[C@H]1C(N)=O)C(C)C)[C@@H](C)O` [M23] ({C20 diacid}-E[AEEA][AEEA]ASQLSTAVLGRLSDELHRLQDYPRTDVGSGSP-NH2), in data set [1], the “effect on body weight of SD rats” value was “apparently further reduced” and the “effect on accumulated food intake of SD rats” value is listed as “apparently further reduced”. Moreover, in data set [3], the “Concentration change on 26 d” value is given as −7.782%, the “Purity change on 7 d” value is “No change” and the “Purity change on 26 d” value was “nearly no noticeable change in purity”. At amylin receptor (hAMY3R) (setting [5]), the half-maximal effective concentration (EC50) is 0.017 nM.
`CC(C)C[C@H](NC(=O)[C@H](CCCNC(=N)N)NC(=O)CNC(=O)[C@H](CC(C)C)NC(=O)[C@@H](NC(=O)[C@H](C)NC(=O)[C@@H](NC(=O)[C@H](CO)NC(=O)[C@H](CC(C)C)NC(=O)[C@H](CCC(N)=O)NC(=O)[C@H](CO)NC(=O)[C@H](C)NC(=O)COCCOCCNC(=O)COCCOCCNC(=O)C[C@H](NC(=O)CCCCCCCCCCCCCCCCCCC(=O)O)C(=O)O)[C@@H](C)O)C(C)C)C(=O)N[C@@H](CO)C(=O)N[C@@H](CC(=O)O)C(=O)N[C@@H](CCC(=O)O)C(=O)N[C@@H](CC(C)C)C(=O)N[C@@H](Cc1c[nH]cn1)C(=O)N[C@@H](CCCNC(=N)N)C(=O)N[C@@H](CC(C)C)C(=O)N[C@@H](CCC(N)=O)C(=O)N[C@@H](CC(=O)O)C(=O)N[C@@H](Cc1ccc(O)cc1)C(=O)N1CCC[C@H]1C(=O)N[C@@H](CCCNC(=N)N)C(=O)N[C@H](C(=O)N[C@@H](CC(=O)O)C(=O)N[C@H](C(=O)NCC(=O)N[C@@H](CO)C(=O)NCC(=O)N[C@@H](CO)C(=O)N1CCC[C@H]1C(N)=O)C(C)C)[C@@H](C)O` [M25] ({C20 diacid-βAsp-AEEA-AEEA}-ASQLSTAVLGRLSDELHRLQDYPRTDVGSGSP-NH2): in data set [1], the “effect on body weight of SD rats” value is given as “apparently further reduced” and the “effect on accumulated food intake of SD rats” value is listed as “apparently further reduced”. For the same compound, in data set [2] (setting [4]), the EC50 is 0.138 nM. Moreover, the “Fold change in activity against hCTR” value in data set [2] is 0.623. For the same compound, in data set [3], the “Concentration change on 7 d” value is recorded as −1.222%, the “Concentration change on 26 d” value is given as −2.645%, the “Purity change on 7 d” value is given as −2.45% and the “Purity change on 26 d” value is recorded as −5.24%. The EC50 on amylin receptor (hAMY3R) (setting [5]) amounted to 0.017 nM. Besides, the “Fold change in activity against hAMY3R” value at amylin receptor (hAMY3R) came out at 2.118.
With `CC(C)C[C@H](NC(=O)[C@H](CCCNC(=N)N)NC(=O)CNC(=O)[C@H](CC(C)C)NC(=O)[C@@H](NC(=O)[C@H](C)NC(=O)[C@@H](NC(=O)[C@H](CO)NC(=O)[C@H](CC(C)C)NC(=O)[C@H](CCC(N)=O)NC(=O)[C@H](CO)NC(=O)[C@H](C)NC(=O)COCCOCCNC(=O)COCCOCCNC(=O)C1CCN(C(=O)CCCCCCCCCCCCCCCCC(=O)O)CC1)[C@@H](C)O)C(C)C)C(=O)N[C@@H](CO)C(=O)N[C@@H](CC(=O)O)C(=O)N[C@@H](CCC(=O)O)C(=O)N[C@@H](CC(C)C)C(=O)N[C@@H](Cc1c[nH]cn1)C(=O)N[C@@H](CCCNC(=N)N)C(=O)N[C@@H](CC(C)C)C(=O)N[C@@H](CCC(N)=O)C(=O)N[C@@H](CC(=O)O)C(=O)N[C@@H](Cc1ccc(O)cc1)C(=O)N1CCC[C@H]1C(=O)N[C@@H](CCCNC(=N)N)C(=O)N[C@H](C(=O)N[C@@H](CC(=O)O)C(=O)N[C@H](C(=O)NCC(=O)N[C@@H](CO)C(=O)NCC(=O)N[C@@H](CO)C(=O)N1CCC[C@H]1C(N)=O)C(C)C)[C@@H](C)O` [M30] ({C18 diacid-Inp-AEEA-AEEA}-ASQLSTAVLGRLSDELHRLQDYPRTDVGSGSP-NH2), the EC50 in data set [2] (Table 5 integrated analysis, read-out: hCTR EC50) is 0.101 nM. For the same compound, the “Fold change in activity against hCTR” value in data set [2] is given as 0.848. Further, in data set [3], the “Concentration change on 26 d” value is given as −5.268%, the “Purity change on 7 d” value was “No change” and the “Purity change on 26 d” value was −4.34%. The “increase in agonistic activity against the amylin receptor” value at amylin receptor (hAMY3R) (compared with M17) is approximately 70 folds. Also, at amylin receptor (hAMY3R) (setting [5]), the EC50 was 0.001 nM. The “Fold change in activity against hAMY3R” value at amylin receptor (hAMY3R) came out at 36.000. Also, the “increase in the ratio of activity against the amylin receptor to agonistic activity against the calcitonin receptor” value at amylin receptor (hAMY3R) (relative to the benchmark D1) is reported as “about 42.5 fold”.
